Measurements from US20160287696A1, “PAN POLLEN IMMUNOGENS AND METHODS AND USES FOR IMMUNE RESPONSE MODULATION” (LA JOLLA INSTITUTE FOR ALLERGY AND IMMUNOLOGY, priority 2013, published 2016).

Test system: cultured PBMCs of the allergic donors
Test: ELISPOT of IL-5 or IFNg production by cultured PBMCs of TG allergic donors in response to peptide
Assay type: cell-based, human
Conditions: for No of PG+ & th+ peptides per NTGA / No of PP & Th+ peptides per NTGA: Table 6; for No of PG+ & th+ peptides per NTGA: PG+ peptides recognized by T cells of grass allergic donors (n=20); for No of PP & Th+ peptides per NTGA: PP peptides recognized by T cells of grass allergic donors (n=20); for # Th+: Table 7, peptides per NTGA recognized by T cells of grass allergic donors (n=20); for NTGA's containing at least one T cell epitope, Th+ (Col 2): NTGA number given = criterion met, TG allergic donors n=20
Description: Table 1 indicates for each of the 397 PG+ peptides in which non-grass pollen species a matching peptide with either less than 3, less than 2 or zero mismatches are found. The number of TG grass allergic donors (n=20) with an in vitro T cell response to the TG peptide sequence is also shown.
A set of 93 proteins from Timothy grass (TG) pollen and the assembly of 822 peptides (15 mers) predicted to promiscuously bind HLA class II molecules shown in Table 9 and the immune reactivity in allergic donors have been reported in PCT application WO 2013/119863. […] Immune reactivity was determined by the production of IL-5 or IFNg from cultured PBMCs of the allergic donors in response to stimulation with a peptide and IL-5 and IFNg were measured by ELISPOT as described in Oseroff C et al, 2010.
In short, T cell immune reactivity was determined using PBMCs isolated from study participants and stored in liquid nitrogen until further use. For experimental testing, PBMCs were thawed and expanded in vitro with TG pollen extract (50 μg/mL) or the peptide pool ([…]). The TG extract and peptide pools had each been previously titrated to determine optimal stimulation concentrations.
Cytokine production by cultured PBMCs in response to antigen stimulation was measured by ELISPOT. Cells (1×10^5 cells/well) were plated and incubated with peptide (10 μg/mL), the peptide pool (5 μg/mL), or the TG extract (50 μg/mL). Phytohaemagglutinin (10 μg/mL) and medium alone were used as positive and negative controls, respectively. Samples were considered to produce a cytokine if 100 spot-forming cells (SFCs)/10^6 PBMCs were detected, with P .05 and a stimulation index of 2 or more. Criteria for individual peptides were the same except that a minimum of 20 SFCs were required for a sample to be counted as positive.
Table 3 lists the 397 PG+ peptides and indicates for each non-grass pollen species whether a matching peptide with either less than 3, less than 2 or zero mismatches could be detected. The immune reactivity of the TG peptide was assessed as the number of TG grass allergic donors (n=20) having in vitro T cell response against the TG peptide.

**Q.** For 58 (GKLDLLLSQGKEYVF) [compound 58], which “No of PG+ & th+ peptides per NTGA” value is on record?
**A.** 0

**Q.** And the “No of PP & Th+ peptides per NTGA” value?
**A.** 0

**Q.** And the “# Th+” value?
**A.** 0

**Q.** How did the “# Th+” value turn out when 15 (GASTGVYEALELRDG) [compound 15] was run?
**A.** 0

**Q.** For 41 (LVSVEDIVLQHWATY) [compound 41], which “# Th+” value is on record?
**A.** 0

**Q.** What does the source list for 28 (NGQHSFYQLIHQGRV) [compound 28]?
**A.** No of PG+ & th+ peptides per NTGA: 0; No of PP & Th+ peptides per NTGA: 0; # Th+: 0

**Q.** For 40 (GIWAVLAWLSIIAYK) [compound 40], which “NTGA's containing at least one T cell epitope, Th+ (Col 2)” value (“NTGA's containing” below) is on record?
**A.** 40

**Q.** And the “No of PG+ & th+ peptides per NTGA” value?
**A.** 2

**Q.** What about the “No of PP & Th+ peptides per NTGA” value of the same substance?
**A.** 2

**Q.** What about the “# Th+” value of the same substance?
**A.** 0

**Q.** For 79 (WYEHRLIDDMVAYAL) [compound 79], which “NTGA's containing” value is on record?
**A.** 79

**Q.** And the “No of PG+ & th+ peptides per NTGA” value?
**A.** 1

**Q.** What about the “No of PP & Th+ peptides per NTGA” value of the same substance?
**A.** 0

**Q.** What about the “# Th+” value of the same substance?
**A.** 0

**Q.** For 80 (VQSDFLAQGFGSLGL) [compound 80], which “# Th+” value is on record?
**A.** 0

**Q.** 92 (SVGFVETLENDLAQL) [compound 92] was tested. Which “# Th+” value did it give?
**A.** 0

**Q.** How did the “# Th+” value turn out when 71 (TSDLQLVQSDLYTLV) [compound 71] was run?
**A.** 0

**Q.** How did the “# Th+” value turn out when 93 (LGEAPYKFKSALEAV) [compound 93] was run?
**A.** 0

**Q.** For 37 (SDSVAIIAANAVQSI) [compound 37], which “# Th+” value is on record?
**A.** 0

**Q.** Which “NTGA's containing” value does the source give for 84 (KSLVRAFMWDSGSTV) [compound 84] here?
**A.** 84

**Q.** And the “No of PG+ & th+ peptides per NTGA” value?
**A.** 4

**Q.** And the “No of PP & Th+ peptides per NTGA” value?
**A.** 3

**Q.** And the “# Th+” value?
**A.** 0

**Q.** Which “No of PG+ & th+ peptides per NTGA” value does the source give for 38 (AVQSIPYFASGLKGV) [compound 38] here?
**A.** 0

**Q.** What about the “No of PP & Th+ peptides per NTGA” value of the same substance?
**A.** 0

**Q.** And the “# Th+” value?
**A.** 0

**Q.** For 63 (FKSIEKFKIFNTNNL) [compound 63], which “# Th+” value is on record?
**A.** 0

**Q.** How did the “# Th+” value turn out when 61 (ISYEGRVQLLEIAQV) [compound 61] was run?
**A.** 0

**Q.** How did the “NTGA's containing” value turn out when 16 (QTELDNFMVHQLDGT) [compound 16] was run?
**A.** 16

**Q.** What about the “No of PG+ & th+ peptides per NTGA” value of the same substance?
**A.** 2

**Q.** And the “No of PP & Th+ peptides per NTGA” value?
**A.** 2

**Q.** What about the “# Th+” value of the same substance?
**A.** 0

**Q.** For 36 (KRFFVTPSDSVAIIA) [compound 36], which “No of PG+ & th+ peptides per NTGA” value is on record?
**A.** 0

**Q.** What about the “No of PP & Th+ peptides per NTGA” value of the same substance?
**A.** 0

**Q.** And the “# Th+” value?
**A.** 0

**Q.** How did the “# Th+” value turn out when 78 (GRFKDIFQAVYEADW) [compound 78] was run?
**A.** 0

**Q.** With 12 (RAAVPSGASTGVYEA) [compound 12] as the substance, how does the “# Th+” value read?
**A.** 0

**Q.** 23 (RYSVCSAVGVLPLSL) [compound 23] was tested. Which “# Th+” value did it give?
**A.** 0

**Q.** What does the source list for 48 (ILSYADFYQLAGVVA) [compound 48]?
**A.** No of PG+ & th+ peptides per NTGA: 0; No of PP & Th+ peptides per NTGA: 0; # Th+: 0

**Q.** 33 (DDGKVYLEMSYYFEI) [compound 33] was tested. Which “No of PG+ & th+ peptides per NTGA” value did it give?
**A.** 0

**Q.** What about the “No of PP & Th+ peptides per NTGA” value of the same substance?
**A.** 0

**Q.** What about the “# Th+” value of the same substance?
**A.** 0

**Q.** For 82 (DNARLLDFTQKLEDA) [compound 82], which “# Th+” value is on record?
**A.** 0

**Q.** Which results are given for 72 (VQSDLYTLVDGFVTR) [compound 72]?
**A.** NTGA's containing at least one T cell epitope, Th+ (Col 2): 72; No of PG+ & th+ peptides per NTGA: 2; No of PP & Th+ peptides per NTGA: 1; # Th+: 0

**Q.** Which results are given for 69 (GINVPRSRFLPVKAT) [compound 69]?
**A.** No of PG+ & th+ peptides per NTGA: 0; No of PP & Th+ peptides per NTGA: 0; # Th+: 0

**Q.** 68 (AAIRFFDHAIGINVP) [compound 68] was tested. Which “# Th+” value did it give?
**A.** 0

**Q.** How did the “NTGA's containing” value turn out when 54 (FLDLIVLQIESLNKK) [compound 54] was run?
**A.** 54

**Q.** 70 (RFLPVKATSDLQLVQ) [compound 70] was tested. Which “# Th+” value did it give?
**A.** 0

**Q.** How did the “# Th+” value turn out when 17 (VDNVNSIIGPALIGK) [compound 17] was run?
**A.** 0

**Q.** Which results are given for 18 (ENRSVLHVALRAPRD) [compound 18]?
**A.** No of PG+ & th+ peptides per NTGA: 0; No of PP & Th+ peptides per NTGA: 0; # Th+: 0

**Q.** What does the source list for 35 (RNMVLGKRFFVTPSD) [compound 35]?
**A.** NTGA's containing at least one T cell epitope, Th+ (Col 2): 35; No of PG+ & th+ peptides per NTGA: 2; No of PP & Th+ peptides per NTGA: 1; # Th+: 0

**Q.** 50 (NPLIFDNSYFTELLT) [compound 50] was tested. Which “No of PG+ & th+ peptides per NTGA” value did it give?
**A.** 0

**Q.** What about the “No of PP & Th+ peptides per NTGA” value of the same substance?
**A.** 0

**Q.** And the “# Th+” value?
**A.** 0

**Q.** Which results are given for 21 (VVSKTFTTAETMLNA) [compound 21]?
**A.** No of PG+ & th+ peptides per NTGA: 0; No of PP & Th+ peptides per NTGA: 0; # Th+: 0

**Q.** What does the source list for 5 (KLAMQEFMILPTGAS) [compound 5]?
**A.** No of PG+ & th+ peptides per NTGA: 0; No of PP & Th+ peptides per NTGA: 0; # Th+: 0

**Q.** Which results are given for 83 (LNTEEFIDAVAAELQ) [compound 83]?
**A.** NTGA's containing at least one T cell epitope, Th+ (Col 2): 83; No of PG+ & th+ peptides per NTGA: 11; No of PP & Th+ peptides per NTGA: 4; # Th+: 0

**Q.** With 44 (GATIRIYIEQYEKDS) [compound 44] as the substance, how does the “No of PG+ & th+ peptides per NTGA” value read?
**A.** 0

**Q.** What about the “No of PP & Th+ peptides per NTGA” value of the same substance?
**A.** 0

**Q.** What about the “# Th+” value of the same substance?
**A.** 0

**Q.** Which “No of PG+ & th+ peptides per NTGA” value does the source give for 60 (SDNLGAIVDMKILNH) [compound 60] here?
**A.** 0

**Q.** And the “No of PP & Th+ peptides per NTGA” value?
**A.** 0

**Q.** What about the “# Th+” value of the same substance?
**A.** 0

**Q.** How did the “No of PG+ & th+ peptides per NTGA” value turn out when 55 (LNKKYGSNVPLLLMN) [compound 55] was run?
**A.** 0

**Q.** And the “No of PP & Th+ peptides per NTGA” value?
**A.** 0

**Q.** And the “# Th+” value?
**A.** 0

**Q.** 31 (QGFIWGINSFDQWGV) [compound 31] was tested. Which “No of PG+ & th+ peptides per NTGA” value did it give?
**A.** 0

**Q.** What about the “No of PP & Th+ peptides per NTGA” value of the same substance?
**A.** 0

**Q.** What about the “# Th+” value of the same substance?
**A.** 0

**Q.** 46 (LDIAVRLLEPIKEQV) [compound 46] was tested. Which “# Th+” value did it give?
**A.** 1

**Q.** How did the “# Th+” value turn out when 75 (GTIRNIINGTVFREP) [compound 75] was run?
**A.** 0

**Q.** How did the “# Th+” value turn out when 66 (IKRLVEADALKMEII) [compound 66] was run?
**A.** 0

**Q.** Which “NTGA's containing” value does the source give for 42 (HQGIRYLFGDGSRLV) [compound 42] here?
**A.** 42

**Q.** And the “No of PG+ & th+ peptides per NTGA” value?
**A.** 1

**Q.** And the “No of PP & Th+ peptides per NTGA” value?
**A.** 1

**Q.** What about the “# Th+” value of the same substance?
**A.** 0

**Q.** How did the “# Th+” value turn out when 25 (VLLGLLSVWNVSFLG) [compound 25] was run?
**A.** 0

**Q.** How did the “No of PG+ & th+ peptides per NTGA” value turn out when 57 (LKIVEKYANSSIDIH) [compound 57] was run?
**A.** 0

**Q.** And the “No of PP & Th+ peptides per NTGA” value?
**A.** 0

**Q.** What about the “# Th+” value of the same substance?
**A.** 0

**Q.** For 81 (NSIASIFAWTRGLAH) [compound 81], which “# Th+” value is on record?
**A.** 0

**Q.** For 67 (VKVLQLETAAGAAIR) [compound 67], which “# Th+” value is on record?
**A.** 0

**Q.** 14 (LGAAAVYAGLKFRAP) [compound 14] was tested. Which “# Th+” value did it give?
**A.** 0

**Q.** 85 (RVLSCDFKPTRPFRI) [compound 85] was tested. Which “# Th+” value did it give?
**A.** 0

**Q.** 74 (GRFKSIPSIVELDSL) [compound 74] was tested. Which “# Th+” value did it give?
**A.** 0
